Patent US20030064414A1, “Rapid assessment of coagulation activity in whole blood” (priority 2001, published 2003)

Tested on: whole blood
Assay: Recalcified clotting time of citrated whole blood, aprotinin and lipidated tissue factor added at assay initiation
Format: biochemical
Description: In the previous examples, blood was always collected in the presence of a calcium-chelating anticoagulant (citrate) and contact pathway inhibitor (aprotinin or corn trypsin inhibitor). It would be desirable for certain applications, for example hospital emergency department use, if blood could be […] into a standard commercially available and FDA-approved sodium citrate tube, such as that supplied by Becton Dickinson, Franklin Lakes, N.J. and Greiner America, Monroe, N.C. and the contact pathway inhibitor added concomitantly during assay initiation with lipidated tissue factor and divalent calcium. In this example, blood from a single donor was collected into sterile evacuated-tubes containing 3.2% buffered sodium citrate (Greiner). In FIG. 7A, clotting was initiated with calcium in the presence or absence of 15,000 KIU/ml aprotinin (Centerchem Inc., Norwalk, Conn.). […] In contrast, blood recalcified in the absence of aprotinin clotted in 250 sec. Thus, the contact pathway of blood coagulation has been abolished. FIG. 7B depicts a dose-response to Lovenox® when citrated blood was recalcified in the presence of 15,000 U/ml aprotinin and 10 units of lipidated tissue factor.
(>1500 sec) to 180 sec. The correlation (R^2) of clotting time to Enoxaparin® dose was 0.9915. The slope was 550 and intercept 210 sec. […]

Substance	recalcified clotting time (citrated blood, calcium and 15,000 KIU/ml aprotinin, no tissue factor, 1500 sec maximal clotting time, FIG. 7A) [s]	recalcified clotting time (citrated blood recalcified with 15,000 U/ml aprotinin and 10 units of lipidated tissue factor) [s]
aprotinin	> 1500	
lipidated tissue factor: lipidated recombinant tissue factor with synthetic phospholipids, procoagulant that initiates the extrinsic pathway		180
